Reference: patent US20060128729A1, “Novel bicyclic heterocyclic compounds, process for their preparation and compositions containing them” (priority 2004, published 2006)
Counter-ions that a name gives are not always drawn.

How the values were obtained:
[1] = tested on: VCAM-1 (vascular cell adhesion molecule-1); assay: VCAM-1 ELISA on cell layers of stimulated human aortic endothelial cells; type: cell-based; settings: Homo sapiens, Endothelial cell, HAECs treated with TNFα (0.05 ng/ml) or glycated human serum albumin (300 μg/ml) for 18-24 h; read-out: IC50 in VCAM-1 enzyme-linked immunosorbent assay
Method: (§1) For inflammation assays, human aortic endothelial cells (HAECS) in 96 well plates were washed once with treatment medium (basal medium containing 1% FBS). Cells were treated with an inflammatory agent such as TNFα (0.05 ng/ml) or glycated human serum albumin (US Biologicals) as source of advanced glycation end products (AGEs) (300 μg/ml) for 18-24 h in the presence or absence of specified amount of compound. Cell supernatants were collected and used for the estimation of MCP-1 (monocyte chemoattractant protein 1) or IL-6 (interleukin-6) by ELISA. Cell layers were washed and used for determining the levels of vascular cell adhesion molecule-1 (VCAM-1).
The cells were fixed cells with 100% methanol for 10 min at room temperature. The methanol was removed and the plate was air-dried. 100 ul of 1:1000 diluted primary antibody (polyclonal goat anti-human VCAM-1—R&D Systems #BBA19) was then added and incubated for 2 h at 37 C. The cells were washed with PBS and 100 ul of 1:5000 dilution of secondary antibody (rabbit anti-goat IgG-HRP—Zymed #81-1620) was added and incubated for 1 h at room temperature. Cells were washed and 100 ul of substrate solution (R&D Systems# DY999) was added and incubated for 20 min in the dark at room temp. 50 μl of stop solution (2N sulfuric acid) was added to the wells and absorbency at 450 nm was noted.

[2] = tested on: MCP-1 (monocyte chemoattractant protein 1); assay: MCP-1 ELISA on supernatants of stimulated human aortic endothelial cells; type: cell-based; settings: Homo sapiens, Endothelial cell, HAECs treated with TNFα (0.05 ng/ml) or glycated human serum albumin (300 μg/ml) for 18-24 h; read-out: IC50 in MCP-1 enzyme-linked immunosorbent assay
Method: as §1
MCP-1 ELISA was carried out using Quantikine Human MCP-1 kit as described by the manufacturer (R&D Systems, Inc.). Mouse anti-human MCP-1 was used as the capture antibody and HRP (horse radish peroxidase)-conjugated goat anti-human MCP-1 antibody was used as detection antibody. Culture medium was incubated with the capture antibody (in 96-well plate) for 2 h at room temperature. Wells were washed three times with wash buffer (0.05% Tween-20 in PBS) followed by incubation with detection antibody for 2 h at room temperature. Color development was read at […] in a microplate reader.

[3] = tested on: human aortic smooth muscle cells; assay: Smooth muscle cell proliferation assay (radiolabeled thymidine incorporation or CellTiter AQ); type: cell-based; settings: human aortic SMC; for IC50: 24 h post treatment in serum-containing growth medium, read-out: Activity: concentration giving 50% inhibition of smooth muscle cell proliferation
Method: Primary cultures of human aortic smooth muscle cells were obtained from Clonetics. SMC were initially grown in T-75 flasks prior to seeding in 96 well plates. The 96-well plates were seeded with 4000 cells/well. The following day cells were washed with serum free medium and left in serum free media for 24 hours for serum starvation. The next day cells received growth medium containing serum with or without compound. 24 h post treatment cell proliferation was assayed either assessing the incorporation of radiolabeled thymidine to DNA or using a non-radioactive cell proliferation kit from Promega (CellTiter AQ).

IL-6 (interleukin-6) = assay: IL-6 ELISA on media of stimulated human aortic endothelial cells; type: cell-based; settings: Endothelial cell; HAECs treated with TNFα (0.05 ng/ml) or glycated human serum albumin (300 μg/ml) for 18-24 h; read-out: IC50 in IL-6 enzyme-linked immunosorbent assay
Method: as §1
IL-6 levels in endothelial cell media were determined using DuaSet IL-6 ELISA kit from R&D Systems (Cat No DY206) as described by the manufacturer. Mouse anti-human IL-6 antibody was used as the capture antibody and biotinylated goat anti-human IL-6 was used as detection antibody. Culture medium was incubated with the capture antibody (in 96-well plate) for 2 h at room temperature. Wells were washed three times with wash buffer (0.05% Tween-20 in PBS) followed by incubation with detection antibody for 2 h at room temperature. The wells were then incubated with streptavidin HRP and color development was read at 450 nm in a microplate reader.

| SMILES | IC50 [1] [µM] | IC50 [2] [µM] | IC50 [3] [µM] | IC50 (IL-6 (interleukin-6)) [µM] | melting point [°C] | inhibition at 5 µM ([3]; at 5 μM, 24 h post treatment) [%] | inhibition at 1 µM ([3]; at 1 μM, 24 h post treatment) [%] |
| --- | --- | --- | --- | --- | --- | --- | --- |
| CCCc1nn(C)c2c(Nc3ccc(OC)c(F)c3)nc(-c3ccc(F)cc3)nc12 [E 1, (3-fluoro-4-methoxy-phenyl)-[5-(4-fluoro-phenyl)-1-methyl-3-propyl-1H-pyrazolo[4,3-d]pyrimidin-7-yl]-amine hydrochloride] | 11.8 | 7.2 | 0.89 | 5.4 | – | – | – |
| CCCc1nn(C)c2c(Nc3ccc(OC)c(Cl)c3)nc(-c3ccc(F)cc3)nc12.Cl [E 2, (3-chloro-4-methoxy-phenyl)-[5-(4-fluoro-phenyl)-1-methyl-3-propyl-1H-pyrazolo[4,3-d]pyrimidin-7-yl]-amine-hydrochloride] | 10.4 | 13.4 | 1.62 | 9 | 253.65 | – | – |
| CCCc1nn(C)c2c(Nc3ccc4c(c3)OCO4)nc(-c3ccc(F)cc3)nc12.Cl [E 8, benzo[1,3]dioxol-5-yl-[5-(4-fluoro-phenyl)-1-methyl-3-propyl-1H-pyrazolo[4,3-d]pyrimidin-7-yl]-amine-hydrochloride] | 12.4 | 8.7 | 1 | – | < 260 | – | – |
| Cl.Fc1ccc(-c2nc(Nc3ccc(Cl)c(C(F)(F)F)c3)c3cnn(-c4ccccc4)c3n2)cc1 [E 81, (4-chloro-3-trifluoromethyl-phenyl)-[6-(4-fluoro-phenyl)-1-phenyl-1H-pyrazolo[3,4-d]pyrimidin-4-yl]-amine hydrochloride] | 8.9 | 5.2 | 3.9 | – | 203.83 | – | – |
| CCCc1nn(C)c2c(Nc3ccc(OC)c(F)c3)nc(-c3ccccc3)nc12.Cl [E 28, (3-fluoro-4-methoxy-phenyl)-(1-methyl-5-phenyl-3-propyl-1H-pyrazolo[4,3-d]pyrimidin-7-yl)-amine hydrochloride] | 8.4 | 7.5 | – | – | 248 to 250 | 70 | – |
| CCCc1nn(C)c2c(Nc3ccc(OC)c(Cl)c3)nc(-c3ccccc3)nc12.Cl [E 27, (3-chloro-4-methoxy-phenyl)-(1-methyl-5-phenyl-3-propyl-1H-pyrazolo[4,3-d]pyrimidin-7-yl)-amine hydrochloride] | 8.4 | 5.7 | 1.28 | 9.6 | 238 to 240 | – | – |
| CCCc1nn(C)c2c(Nc3ccc(OC)c(F)c3)nc(-c3cccs3)nc12.Cl [E 10, (3-fluoro-4-methoxy-phenyl)-(1-methyl-3-propyl-5-thiophen-2-yl-1H-pyrazolo[4,3-d]pyrimidin-7-yl) -amine hydrochloride] | 11.8 | 1.6 | – | – | 238 to 242 | – | 96 |
